Results on 15 compounds are retold here after patent US12466827B2, “1,3,4-oxadiazole derivative compounds as histone deacetylase 6 inhibitor, and the pharmaceutical composition comprising the same” (CHONG KUN DANG PHARMACEUTICAL CORP., priority 2020, dated 2025).

One test addresses T1, human recombinant HDAC1 (Homo sapiens, UniProt Q13547).
T1 construct: purchased Enzo Life Sciences, Inc. BML-SE456
Kind of test: In vitro HDAC enzyme activity inhibition assay (HDAC1). It is filed as biochemical. Conditions: Fluor de Lys-SIRT1 substrate 10 μM, 30° C., 60 minutes, fluorescence. As to the method: (§1) In order to confirm the selectivity of the compounds represented by Chemical Formula I of the present invention to HDAC6 through HDAC1 and HDAC6 enzyme activity inhibition experiments, a comparison experiment was performed using the material that has already been developed as a control group.
(§2) HDAC enzyme activity was measured using the HDAC Fluorimetric Drug Discovery Kit (Enzo Life Sciences, Inc., BML-AK511, 516). For the HDAC1 enzyme activity test, human recombinant HDAC1 (BML-SE456) was used as an enzyme source and Fluor de Lys-SIRT1 (BNL-KI177) was used as a substrate. After dispensing 5-fold diluted compounds into a 96-well plate, 0.3 μg of enzyme and 10 μM substrate were added to each well of the plate and allowed to react at 30° C. for 60 minutes. Next, Fluor de Lys Developer II (BML-KI176) was added and reacted for 30 minutes to complete the reaction, and then the fluorescence values (Ex 360, Em 460) were measured using a multi-plate reader (Flexstation 3, Molecular Device). The HDAC6 enzymes were tested using human recombinant HDAC6 (382180) from Calbiochem Inc., according to the same protocol as the HDAC1 enzyme activity test method. With respect to the final result values, respective IC50 values were calculated using GraphPad Prism 4.0 program, and results thereof were summarized in Table 4 below.

A further test addresses T2, human recombinant HDAC6 (Homo sapiens, UniProt Q9UBN7).
T2 construct: purchased Calbiochem Inc. 382180
T2 sequence (Q9UBN7 1-1215): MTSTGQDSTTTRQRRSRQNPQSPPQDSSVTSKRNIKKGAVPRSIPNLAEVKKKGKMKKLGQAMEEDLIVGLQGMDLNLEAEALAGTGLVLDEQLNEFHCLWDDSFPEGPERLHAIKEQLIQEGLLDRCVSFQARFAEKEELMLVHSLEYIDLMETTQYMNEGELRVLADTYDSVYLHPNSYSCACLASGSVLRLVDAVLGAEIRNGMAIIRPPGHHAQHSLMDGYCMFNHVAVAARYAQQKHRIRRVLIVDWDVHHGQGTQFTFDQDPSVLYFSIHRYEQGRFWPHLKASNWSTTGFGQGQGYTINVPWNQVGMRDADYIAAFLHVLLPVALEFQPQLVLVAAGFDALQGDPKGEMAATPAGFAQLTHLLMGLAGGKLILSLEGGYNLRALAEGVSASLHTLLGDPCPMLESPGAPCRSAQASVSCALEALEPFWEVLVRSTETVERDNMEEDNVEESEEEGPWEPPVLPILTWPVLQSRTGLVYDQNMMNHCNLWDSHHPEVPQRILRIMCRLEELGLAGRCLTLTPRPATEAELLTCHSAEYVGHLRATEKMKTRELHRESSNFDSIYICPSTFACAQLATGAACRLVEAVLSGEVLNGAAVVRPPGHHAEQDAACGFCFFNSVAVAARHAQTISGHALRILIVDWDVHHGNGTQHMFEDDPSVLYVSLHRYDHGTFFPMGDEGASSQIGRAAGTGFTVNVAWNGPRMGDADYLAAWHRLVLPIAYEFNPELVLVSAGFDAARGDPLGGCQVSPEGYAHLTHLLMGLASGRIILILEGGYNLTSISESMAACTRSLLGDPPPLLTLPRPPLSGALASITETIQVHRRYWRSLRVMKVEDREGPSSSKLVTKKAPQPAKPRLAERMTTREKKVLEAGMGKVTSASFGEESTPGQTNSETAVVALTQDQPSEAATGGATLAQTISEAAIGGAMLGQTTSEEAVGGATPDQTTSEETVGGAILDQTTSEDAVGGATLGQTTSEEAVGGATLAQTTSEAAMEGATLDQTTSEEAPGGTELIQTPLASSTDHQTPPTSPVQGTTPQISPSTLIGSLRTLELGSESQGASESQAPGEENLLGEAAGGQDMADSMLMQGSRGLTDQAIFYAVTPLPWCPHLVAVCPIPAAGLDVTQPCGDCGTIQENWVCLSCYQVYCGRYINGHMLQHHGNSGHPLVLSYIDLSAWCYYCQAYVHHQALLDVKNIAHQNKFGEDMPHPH
The test is described as follows: In vitro HDAC enzyme activity inhibition assay (HDAC6). It is filed as biochemical. Conditions: for HDAC6 selectivity (fold): HDAC6 over HDAC1; for IC50: same protocol as the HDAC1 test, human recombinant HDAC6 (Calbiochem). As to the method: as §1, §2

Some results are limits rather than exact numbers.

T1 sequence (Q13547 whole entry): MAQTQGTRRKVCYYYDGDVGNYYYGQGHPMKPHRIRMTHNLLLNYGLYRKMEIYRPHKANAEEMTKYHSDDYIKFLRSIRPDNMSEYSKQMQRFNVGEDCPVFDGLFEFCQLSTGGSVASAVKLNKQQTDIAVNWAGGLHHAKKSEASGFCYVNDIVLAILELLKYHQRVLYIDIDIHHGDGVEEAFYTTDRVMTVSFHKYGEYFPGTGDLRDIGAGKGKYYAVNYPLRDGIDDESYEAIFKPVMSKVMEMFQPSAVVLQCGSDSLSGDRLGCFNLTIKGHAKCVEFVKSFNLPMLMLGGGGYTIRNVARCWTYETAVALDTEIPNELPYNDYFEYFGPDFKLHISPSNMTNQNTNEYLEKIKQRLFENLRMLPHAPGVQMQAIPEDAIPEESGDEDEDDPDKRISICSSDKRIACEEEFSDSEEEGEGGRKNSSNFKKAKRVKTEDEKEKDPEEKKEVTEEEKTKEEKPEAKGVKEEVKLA

For the compound `O=S(=O)(C1CCN(C2CC3(CCC3)C2)CC1)N(Cc1cn2ccc(-c3nnc(C(F)F)o3)cc2n1)c1cccc(F)c1` [Compound 4616, N-((7-(5-(difluoromethyl)-1,3,4-oxadiazol-2-yl)imidazo[1,2-a]pyridin-2-yl)methyl)-N-(3-fluorophenyl)-1-(spiro[3.3]heptan-2-yl)piperidine-4-sulfonamide], the IC50 was above 50000 nM at human recombinant HDAC1 and 205 nM at human recombinant HDAC6. The “HDAC6 selectivity (fold)” value at human recombinant HDAC6 came to 243 fold.
As to `CN1CC2(C1)CN(S(=O)(=O)N(Cc1cn3ccc(-c4nnc(C(F)F)o4)cc3n1)c1ccccc1)C2` [Compound 4624, N-((7-(5-(difluoromethyl)-1,3,4-oxadiazol-2-yl)imidazo[1,2-a]pyridin-2-yl)methyl)-6-methyl-N-phenyl-2,6-diazaspiro[3.3]heptan-2-sulfonamide], on human recombinant HDAC1, the IC50 was above 50000 nM. Further, at human recombinant HDAC6, the “HDAC6 selectivity (fold)” value turned out to be 595 fold and the 50% inhibitory concentration (IC50) was 84 nM.
The like results for `CC(CO)N1CCN(S(=O)(=O)N(Cc2cn3ccc(-c4nnc(C(F)F)o4)cc3n2)c2ccccc2)CC1` (stereo not drawn) [Compound 4259, N-((7-(5-(difluoromethyl)-1,3,4-oxadiazol-2-yl)imidazo[1,2-a]pyridin-2-yl)methyl)-4-(1-hydroxypropan-2-yl)-N-phenylpiperazine-1-sulfonamide] were, in that order, above 50000 nM, 605 fold and 82.6 nM.
The like results for `CC(=O)N1CCN(S(=O)(=O)N(Cc2cn3ccc(-c4nnc(C(F)F)o4)cc3n2)c2cccc(F)c2)CC1` [Compound 4306, 4-acetyl-N-((7-(5-(difluoromethyl)-1,3,4-oxadiazol-2-yl)imidazo[1,2-a]pyridin-2-yl)methyl)-N-(3-fluorophenyl)piperazine-1-sulfonamide] were, in that order, above 50000 nM, 617 fold and 81 nM.
The like results for `COC(=O)N1CCC(S(=O)(=O)N(Cc2cn3ccc(-c4nnc(C(F)F)o4)cc3n2)c2ccccc2)CC1` [Compound 4226, methyl 4-(N-((7-(5-(difluoromethyl)-1,3,4-oxadiazol-2-yl)imidazo[1,2-a]pyridin-2-yl)methyl)-N-phenylsulfamoyl)piperidine-1-carboxylate] were, in that order, above 50000 nM, 432 fold and 116 nM.
In the case of `CC(CO)N1CCC(S(=O)(=O)N(Cc2cn3ccc(-c4nnc(C(F)F)o4)cc3n2)c2cccc(F)c2)CC1` (stereo not drawn) [Compound 4239, N-((7-(5-(difluoromethyl)-1,3,4-oxadiazol-2-yl)imidazo[1,2-a]pyridin-2-yl)methyl)-N-(3-fluorophenyl)-1-(1-hydroxypropan-2-yl)piperidine-4-sulfonamide], the half-maximal inhibitory concentration (IC50) was above 50000 nM at human recombinant HDAC1 and 78.8 nM at human recombinant HDAC6. The “HDAC6 selectivity (fold)” value at human recombinant HDAC6 is 635 fold.
For `O=S(=O)(C1CCN(C2CCC2)CC1)N(Cc1cn2ccc(-c3nnc(C(F)F)o3)cc2n1)c1ccccc1` [Compound 4217, 1-cyclobutyl-N-((7-(5-(difluoromethyl)-1,3,4-oxadiazol-2-yl)imidazo[1,2-a]pyridin-2-yl)methyl)-N-phenylpiperidine-4-sulfonamide], the IC50 at human recombinant HDAC1 was above 50000 nM. Further, at human recombinant HDAC6, the “HDAC6 selectivity (fold)” value worked out at 410 fold and the IC50 stood at 122 nM.
The like results for `O=S(=O)(N1CCN(c2ncccn2)CC1)N(Cc1cn2ccc(-c3nnc(C(F)F)o3)cc2n1)c1cccc(F)c1` [Compound 4315, N-((7-(5-(difluoromethyl)-1,3,4-oxadiazol-2-yl)imidazo[1,2-a]pyridin-2-yl)methyl)-N-(3-fluorophenyl)-4-(pyrimidin-2-yl)piperazine-1-sulfonamide] were, in that order, above 50000 nM, 309 fold and 162 nM.
For the compound `CS(=O)(=O)N1CCC(S(=O)(=O)N(Cc2cn3ccc(-c4nnc(C(F)F)o4)cc3n2)c2cccc(F)c2)CC1` [Compound 4251, N-((7-(5-(difluoromethyl)-1,3,4-oxadiazol-2-yl)imidazo[1,2-a]pyridin-2-yl)methyl)-N-(3-fluorophenyl)-1-(methylsulfonyl)piperidine-4-sulfonamide], the IC50 is above 50000 nM at human recombinant HDAC1 and 95.2 nM at human recombinant HDAC6. Besides, the “HDAC6 selectivity (fold)” value at human recombinant HDAC6 is 525 fold.
With `CS(=O)(=O)N1CCN(S(=O)(=O)N(Cc2cn3ccc(-c4nnc(C(F)F)o4)cc3n2)c2ccccc2)CC1` [Compound 4271, N-((7-(5-(difluoromethyl)-1,3,4-oxadiazol-2-yl)imidazo[1,2-a]pyridin-2-yl)methyl)-4-(methylsulfonyl)-N-phenylpiperazine-1-sulfonamide], the IC50 on human recombinant HDAC1 is above 50000 nM. At human recombinant HDAC6, the “HDAC6 selectivity (fold)” value came out at 215 fold and the IC50 turned out to be 232 nM.
The like results for `O=C(N1CCC(S(=O)(=O)N(Cc2cn3ccc(-c4nnc(C(F)F)o4)cc3n2)c2cccc(F)c2)CC1)C(F)(F)F` [Compound 4250, N-((7-(5-(difluoromethyl)-1,3,4-oxadiazol-2-yl)imidazo[1,2-a]pyridin-2-yl)methyl)-N-(3-fluorophenyl)-1-(2,2,2-trifluoroacetyl)piperidine-4-sulfonamide] were, in that order, above 50000 nM, 431 fold and 116 nM.
`CCN1CCN(S(=O)(=O)N(Cc2cn3ccc(-c4nnc(C(F)F)o4)cc3n2)c2ccccc2)CC1` [Compound 4257, N-((7-(5-(difluoromethyl)-1,3,4-oxadiazol-2-yl)imidazo[1,2-a]pyridin-2-yl)methyl)-4-ethyl-N-phenylpiperazine-1-sulfonamide]: at human recombinant HDAC1, the concentration for half-maximal inhibition (IC50) was above 50000 nM. In addition, on human recombinant HDAC6, the “HDAC6 selectivity (fold)” value is recorded as 674 fold and the concentration for half-maximal inhibition (IC50) came out at 74.2 nM.
As to `CC(C)N1CCN(S(=O)(=O)N(Cc2cn3ccc(-c4nnc(C(F)F)o4)cc3n2)c2ccccc2)CC1` [Compound 4258, N-((7-(5-(difluoromethyl)-1,3,4-oxadiazol-2-yl)imidazo[1,2-a]pyridin-2-yl)methyl)-4-isopropyl-N-phenylpiperazine-1-sulfonamide], the figures for the concentration for half-maximal inhibition (IC50) at human recombinant HDAC1 and on human recombinant HDAC6 were above 50000 nM and 100 nM, respectively. The “HDAC6 selectivity (fold)” value at human recombinant HDAC6 is listed as 500 fold.
On to `CCC(=O)N1CCN(S(=O)(=O)N(Cc2cn3ccc(-c4nnc(C(F)F)o4)cc3n2)c2ccccc2)CC1` [Compound 4266, N-((7-(5-(difluoromethyl)-1,3,4-oxadiazol-2-yl)imidazo[1,2-a]pyridin-2-yl)methyl)-N-phenyl-4-propionylpiperazine-1-sulfonamide], for which the half-maximal inhibitory concentration (IC50) is above 50000 nM at human recombinant HDAC1 and 116 nM on human recombinant HDAC6. Besides, the “HDAC6 selectivity (fold)” value on human recombinant HDAC6 is on record as 431 fold.
The like results for `O=C(C1CCC1)N1CCN(S(=O)(=O)N(Cc2cn3ccc(-c4nnc(C(F)F)o4)cc3n2)c2cccc(F)c2)CC1` [Compound 4309, 4-(cyclobutanecarbonyl)-N-((7-(5-(difluoromethyl)-1,3,4-oxadiazol-2-yl)imidazo[1,2-a]pyridine-2-yl)methyl)-N-(3-fluorophenyl)piperazine-1-sulfonamide] were, in that order, above 50000 nM, 114 nM and 437 fold.
